The source made the active and inactive calls. The rule behind the calls is not given here.
Columns and labels:
[1] = target: T1, Importin-5 (Homo sapiens) (UniProt O00410); assay: Binding affinity to human IPO5 in human PC-3 cell lysate incubated for 30 mins by DTB-Cy3 dye based pull down analysis; type: subcellular
T1 sequence (whole entry): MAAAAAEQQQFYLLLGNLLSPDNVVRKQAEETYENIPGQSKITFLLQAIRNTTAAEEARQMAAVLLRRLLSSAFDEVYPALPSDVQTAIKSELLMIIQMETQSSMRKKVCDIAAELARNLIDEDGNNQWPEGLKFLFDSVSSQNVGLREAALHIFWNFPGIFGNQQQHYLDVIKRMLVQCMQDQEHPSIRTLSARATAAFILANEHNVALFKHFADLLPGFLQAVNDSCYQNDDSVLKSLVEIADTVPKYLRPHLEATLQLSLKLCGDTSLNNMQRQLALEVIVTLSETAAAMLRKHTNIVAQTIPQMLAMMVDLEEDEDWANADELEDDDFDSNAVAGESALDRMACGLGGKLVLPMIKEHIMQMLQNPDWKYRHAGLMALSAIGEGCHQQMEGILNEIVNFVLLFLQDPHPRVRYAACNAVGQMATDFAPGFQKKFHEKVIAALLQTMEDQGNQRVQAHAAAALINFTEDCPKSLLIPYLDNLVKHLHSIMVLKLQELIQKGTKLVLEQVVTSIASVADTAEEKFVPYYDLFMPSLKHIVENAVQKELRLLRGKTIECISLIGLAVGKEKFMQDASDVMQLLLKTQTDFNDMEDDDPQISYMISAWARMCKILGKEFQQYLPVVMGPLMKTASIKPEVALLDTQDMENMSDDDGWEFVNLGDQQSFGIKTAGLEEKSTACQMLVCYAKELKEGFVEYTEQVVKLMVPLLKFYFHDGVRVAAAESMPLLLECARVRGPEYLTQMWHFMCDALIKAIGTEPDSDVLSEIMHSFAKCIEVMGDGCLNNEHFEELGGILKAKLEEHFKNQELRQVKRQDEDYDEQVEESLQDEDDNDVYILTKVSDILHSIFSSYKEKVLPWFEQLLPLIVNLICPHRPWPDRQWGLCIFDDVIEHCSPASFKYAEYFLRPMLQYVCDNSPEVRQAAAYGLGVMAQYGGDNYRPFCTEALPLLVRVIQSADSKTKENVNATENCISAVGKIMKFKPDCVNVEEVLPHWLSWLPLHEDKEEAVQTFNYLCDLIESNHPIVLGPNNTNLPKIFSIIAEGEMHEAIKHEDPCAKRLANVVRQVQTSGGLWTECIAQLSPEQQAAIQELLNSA

[2] = tested on: Influenza A virus; assay: Antiviral activity against drug treated Influenza A virus strain A/Netherlands/604/2009 cell lysate infected in dog MDCK cells assessed as reduction in viral replication at 1 uM and measured after 8 hr by crystal violet staining based plaque assay; type: functional, organism-based
[3] = tested on: Influenza A virus; assay: Antiviral activity against drug treated Influenza A virus strain A/Netherlands/604/2009 cell lysate infected in dog MDCK cells assessed as reduction in viral replication at 500 nM and measured after 8 hr by crystal violet staining based plaque assay; type: functional, organism-based
[4] = target: Heat shock protein HSP90 (Homo sapiens) (UniProt P07900+P08238); assay: Binding affinity to recombinant human HSP90 at 10 uM by Western blotting based pull-down assay; type: protein assay
[5] = tested on: A549; assay: Cytotoxicity against human A549 cells assessed as reduction in cell viability at 1 uM for 10 hrs by Hoechst 33342 staining based fluorescence microscopy; type: toxicity; details: a549, 10 h
[6] = tested on: A549; assay: Upregulation of HO-1 expression in human A549 cells at 1 uM for 2 to 6 hrs by western blot analysis; type: functional, cell-based; details: time 2-6 hrs
[7] = target: Annexin A2 (Homo sapiens) (UniProt P07355); assay: Competitive binding affinity to human annexin A2 in human A549 cell lysate at 10 uM for 30 mins followed by GOYA-P treatment for 30 mins by DTB-Cy3 dye based SDS-PAGE analysis; type: subcellular; details: time 60.0 min
[8] = target: T1, Importin-5 (Homo sapiens); assay: Competitive binding affinity to human IPO5 in human PC-3 cell lysate at 10 uM for 30 mins followed by GOYA-P treatment for 30 mins by DTB-Cy3 dye based SDS-PAGE analysis; type: subcellular; details: time 60.0 min
[9] = target: T1, Importin-5 (Homo sapiens); assay: Competitive binding affinity to human IPO5 in human PC-3 cell lysate at 10 uM for 30 mins followed by GOYA-P treatment for 30 mins by DTB-Cy3 dye based pull-down assay; type: subcellular; details: time 60.0 min
[10] = target: Vimentin (Homo sapiens) (UniProt P08670); assay: Competitive binding affinity to human Vimentin in human PC-3 cell lysate at 10 uM for 30 mins followed by WA-P2 treatment for 30 mins by SDS gel Cy3 fluorescence based MS/MS analysis; type: subcellular; details: time 60.0 min
[11] = tested on: Influenza A virus; assay: Antiviral activity against Influenza A virus strain A/Netherlands/604/2009 infected in human A549 cells assessed as reduction in influenza virus nucleoprotein production at 1 to 10 uM preincubated for 40 mins followed by virus infection and measured after 4 to 6 hrs by Western blot analysis; type: functional, organism-based; details: dose 1-10 µM, time 280-400 min
[12] = target: Vimentin (Homo sapiens) (UniProt P08670); assay: Competitive binding affinity to human Vimentin in human PC-3 cell lysate at 10 uM for 30 mins followed by WA-P1 treatment for 30 mins by SDS gel Cy3 fluorescence based MS/MS analysis; type: subcellular; details: time 60.0 min
[13] = target: T1, Importin-5 (Homo sapiens); assay: Binding affinity to human IPO5 in human PC-3 cell lysate assessed as inhibition of IPO5 interaction with NLS PB1 cargo protein from Influenza A virus at 10 uM for 30 mins by pull-down assay; type: subcellular
[14] = tested on: Influenza A virus; assay: Antiviral activity against Influenza A virus strain A/Netherlands/604/2009 infected in human A549 cells assessed as reduction in influenza virus nucleoprotein production at 1 uM preincubated for 40 mins followed by virus infection and measured after 4 to 6 hrs by Western blot analysis; type: functional, organism-based; details: time 280-400 min
[15] = tested on: Influenza A virus; assay: Antiviral activity against Influenza A virus strain A/Netherlands/604/2009 infected in human A549 cells assessed as reduction in influenza virus nucleoprotein production at 2.5 uM preincubated for 40 mins followed by virus infection and measured after 4 to 6 hrs by Western blot analysis; type: functional, organism-based; details: time 280-400 min

Chain of Vimentin (Homo sapiens) (P08670 whole entry): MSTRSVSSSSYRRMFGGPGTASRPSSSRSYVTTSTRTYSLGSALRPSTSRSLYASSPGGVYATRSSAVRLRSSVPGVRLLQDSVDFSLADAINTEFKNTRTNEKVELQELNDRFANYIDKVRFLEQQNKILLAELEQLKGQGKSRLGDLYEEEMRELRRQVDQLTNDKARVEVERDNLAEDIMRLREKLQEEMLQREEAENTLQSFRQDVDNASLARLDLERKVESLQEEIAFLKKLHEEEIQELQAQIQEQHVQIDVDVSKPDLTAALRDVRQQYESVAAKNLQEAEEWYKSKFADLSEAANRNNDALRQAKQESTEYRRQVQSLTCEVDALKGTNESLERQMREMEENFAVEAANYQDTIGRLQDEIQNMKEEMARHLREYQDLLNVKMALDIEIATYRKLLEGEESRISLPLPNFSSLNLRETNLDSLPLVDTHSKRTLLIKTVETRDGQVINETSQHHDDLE
Chain of Annexin A2 (Homo sapiens) (P07355 whole entry): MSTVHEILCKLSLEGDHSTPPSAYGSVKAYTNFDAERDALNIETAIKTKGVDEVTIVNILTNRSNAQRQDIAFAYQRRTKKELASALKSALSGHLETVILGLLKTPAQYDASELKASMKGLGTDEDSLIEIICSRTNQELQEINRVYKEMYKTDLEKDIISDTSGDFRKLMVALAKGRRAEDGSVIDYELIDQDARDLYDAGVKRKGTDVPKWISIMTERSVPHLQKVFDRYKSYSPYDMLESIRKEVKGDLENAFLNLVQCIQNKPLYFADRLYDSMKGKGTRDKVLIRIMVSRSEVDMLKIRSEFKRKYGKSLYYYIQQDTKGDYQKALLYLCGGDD

Structure (SMILES) | Activity [2] | Activity [3] | Activity [4] | Activity [5] | Activity [6] | Activity [7] | Activity [8] | other results
C#CCOCC(=C)C(=O)O[C@H]1C[C@@]2(C)OC(=CC2=O)/C(CO)=C\[C@H]2OC(=O)C(=C)[C@H]12 | – | – | – | – | – | – | – | Activity [1]: Active
C#CCCC(=O)O[C@H]1C=CC(=O)[C@]2(C)[C@H]3CC[C@]4(C)[C@@H]([C@H](C)C5CC(C)=C(CO)C(=O)O5)CC[C@H]4[C@@H]3C[C@H]3O[C@]132 (stereo partly drawn) | Active | Active | Active | Non-Toxic | – | – | – | –
C#CCCC(=O)OCC1=C(C)CC([C@@H](C)[C@H]2CC[C@H]3[C@@H]4C[C@H]5O[C@]56[C@@H](O)C=CC(=O)[C@]6(C)[C@H]4CC[C@]23C)OC1=O (stereo partly drawn) | Active | Active | Active | Non-Toxic | – | – | – | –
COC(=O)[C@]12CCC(C)(C)C[C@@H]1[C@H]1C(=O)C=C3[C@@]4(C)C=C(C#N)C(=O)C(C)(C)[C@@H]4CC[C@@]3(C)[C@]1(C)CC2 | Active | – | – | – | Active | – | – | –
C=C(C)C(=O)O[C@H]1C[C@@]2(C)OC(=CC2=O)/C(CO)=C\[C@H]2OC(=O)C(=C)[C@H]12 [GOIAZENSOLIDE] | Active | – | – | Non-Toxic | – | Active | Active | –
CC1=C(CO)C(=O)O[C@@H]([C@@H](C)[C@H]2CC[C@H]3[C@@H]4C[C@H]5O[C@]56[C@@H](O)C=CC(=O)[C@]6(CO)[C@H]4CC[C@]23C)C1 | Active | Active | – | Non-Toxic | Active | Active | Active | Activity [9]: Active; Activity [10]: Active; Activity [11]: Active; Activity [12]: Active; Activity [13]: Active; Activity [14]: Active; Activity [15]: Active
